Data published in US7432403B2, “Cyclic palladium compounds having coordinated thereto bis (diphenylphosphine) ferrocene ligands which inhibit the activity of proteins and enzymes and treatment of diseases and disorders associated therewith” (Fundação De Amparo À Pesquisa Do Estado de São Paulo, priority 2002, dated 2008).
Where two headings read alike, the source gives them in different places. Values belong to the compound of their own block, whether it stands above or below them.

What was measured:
[1] = Evaluation of acute toxicity, fixed dosage test, 14-day observation; assay type: in vivo, mice; conditions: one dose intraperitoneally
Experimental: The concentration of cyclopalladated compounds of the invention as used in this study is being determined from the realization of a fixed dosage test, in which the substance to be tested is given to mice under specific dosage, which is selected from previously fixed dosages, according to classifications from ruling institutions, for which the maximum concentration to be tested should not surpass 2000 mg/kg.
After drug administration, a 14-day observation period follows. The dosage under which signs of acute toxicity are observed, such as changes in hair, mucosa and skin, as well as the occurrence of diarrhea and convulsions, conjunctivitis, excitement or slow movements, is used to graduate or classify the tested material.
Assayed compounds are diluted in saline containing 10% DMSO and then 0.2 ml of that solution are intraperitoneally given to the animals. Therefore, groups of 10 animals (5 males and 5 females) were treated with various doses of the compounds being studied. The control animals received only saline with 10% DMSO. After the end of the treatment, the animals remained in observation for a period of 14 days.

[2] = test system: Ehrlich's ascitic tumor; experiment: Life extension of animals with Ehrlich's ascitic tumor; assay type: in vivo, mice; conditions: 1 mg/kg subcutaneously, four consecutive days, start 72 hours after inoculation
Description: With the purpose to observe a possible protection of treated animals with the compounds of the invention, a life extension curve was drafted, considering animals with the Ehrlich's ascitic tumor, be them treated or not.
The Life Extension Curve of Kaplan-Meier was used to analyse the possibility of survival. The comparison between both groups (holders of tumor vs. holders of tumor/treated) was made by the Log-Rank method—non-parametrical procedures (Cox-Mantel). ANOVA variation analysis was used for the analysis of various groups. In case of significant difference, the Tukey's test was applied. In cases in which the number of samples between two groups was small, the Wilcoxon's non-parametrical test was used.
To develop the Ehrlich's ascitic tumor, mice are intraperitoneally inoculated with 0.1 ml of a suspension of tumor cells containing 10^6 cells, originating from the peritoneal cavity of holder mice. After taking out the ascitic liquid from the peritoneum of mice holding the tumor of Ehrlich, the number and viability of cells are determined by using trypan blue colorant in a Neubauer chamber.
With the purpose to observe possible protection of treated animals with the compounds [Pd2(C^2,N-S-dmpa)2(μ-dpp)Cl2] e [Pd2(C^2,N-S-dmpa)2(μ-dppf)(N3)2] (as per scheme C shown in generic structures), a life extension curve was made. […]

[3] = test system: HL60 cells; experiment: Morphological aspect of treated HL60 cells; assay type: cell-based; conditions: 72 hours
Description: From the results obtained by experiments as illustrated by Example 11, we verified cytotoxic activity of the cyclopalladated compounds in both studied lines, with results obtained from the two compounds being similar (FIGS. 10 and 11). […] On the other hand, the morphological aspect of leukemic cells HL60 treated with cyclopalladated compounds is that of cells in scheduled cell death process or apoptosis, as illustrated by FIG. 12.

[4] = molecular target: T1, ACE (Mus musculus, UniProt P09470); conditions: administration one hour after radiation; cited from earlier work
T1 construct: host or cells: mouse plasma, in vivo
T1 sequence (P09470 35-1312): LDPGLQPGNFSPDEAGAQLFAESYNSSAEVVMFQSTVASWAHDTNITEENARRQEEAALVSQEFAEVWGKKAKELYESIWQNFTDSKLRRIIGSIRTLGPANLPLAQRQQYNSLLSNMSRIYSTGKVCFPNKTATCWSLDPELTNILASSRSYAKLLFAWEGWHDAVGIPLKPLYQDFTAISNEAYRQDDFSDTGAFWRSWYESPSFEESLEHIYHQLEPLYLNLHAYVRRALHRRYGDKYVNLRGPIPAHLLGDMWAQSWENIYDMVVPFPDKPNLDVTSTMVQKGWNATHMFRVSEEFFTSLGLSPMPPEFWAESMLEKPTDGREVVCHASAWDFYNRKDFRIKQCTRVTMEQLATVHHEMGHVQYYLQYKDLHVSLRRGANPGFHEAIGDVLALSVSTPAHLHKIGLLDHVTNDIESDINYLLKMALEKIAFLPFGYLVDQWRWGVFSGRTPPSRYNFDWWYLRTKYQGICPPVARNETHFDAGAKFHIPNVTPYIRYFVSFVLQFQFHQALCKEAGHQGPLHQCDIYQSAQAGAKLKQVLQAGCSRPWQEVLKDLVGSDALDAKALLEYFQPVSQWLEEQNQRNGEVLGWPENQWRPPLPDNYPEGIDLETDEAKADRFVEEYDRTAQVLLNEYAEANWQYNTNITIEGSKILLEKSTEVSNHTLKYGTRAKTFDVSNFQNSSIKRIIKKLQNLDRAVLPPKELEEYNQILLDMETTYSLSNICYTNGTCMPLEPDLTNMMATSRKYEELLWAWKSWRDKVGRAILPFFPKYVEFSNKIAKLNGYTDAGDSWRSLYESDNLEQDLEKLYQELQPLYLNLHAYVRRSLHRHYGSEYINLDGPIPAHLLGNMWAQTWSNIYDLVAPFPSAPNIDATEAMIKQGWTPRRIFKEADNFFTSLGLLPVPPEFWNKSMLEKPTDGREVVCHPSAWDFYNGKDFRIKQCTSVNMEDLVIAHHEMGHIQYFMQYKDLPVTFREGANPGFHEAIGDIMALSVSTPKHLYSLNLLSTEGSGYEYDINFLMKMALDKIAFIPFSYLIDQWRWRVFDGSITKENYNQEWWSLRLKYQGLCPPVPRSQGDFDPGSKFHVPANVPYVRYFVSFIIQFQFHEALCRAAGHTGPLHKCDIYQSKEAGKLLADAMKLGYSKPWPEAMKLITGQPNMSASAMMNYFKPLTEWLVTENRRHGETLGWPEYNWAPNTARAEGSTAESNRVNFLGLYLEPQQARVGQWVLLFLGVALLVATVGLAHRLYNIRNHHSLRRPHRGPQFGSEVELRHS

[5] = molecular target: T2, Cathepsin B (Homo sapiens, UniProt P07858); experiment: Cathepsin B endopeptidase activity, hydrolysis of fluorogenic substrate Z-Phe-Arg-MCA (spectrofluorimetry); assay type: biochemical; conditions: for Ki: pH 6.4, 37° C., substrate Z-Phe-Arg-MCA
T2 construct: purchased Calbiochem Co
Experimental: Cathepsin B and papain were supplied by the company Calbiochem Co. and the concentration of active enzymes was determined by titulation using the cysteine-protease inhibitor known as E-64. Cathepsin B and papain were packed at 4° C. within 50 mM in sodium acetate buffer (pH 5.0) containing 10 μM MMTS. The fluorogenic substrate amidomethylcoumaryl Z-Phe-Arg-MCA, tripsin and the irreversible papain inhibitor E-64 were supplied by Sigma.
The influence of the organometal compounds on the activity of endopeptidase cathepsin B was determined by spectrofluorimetry, using the fluorogenic substrate Z-Phe-Arg-MCA. This peptide is a good substrate for cathepsin B with kcat/Ks=4.5 10^5 M^−1.s^−1 and was chosen so to locate residues Phe and Arg in P2 and P1, respectively. The substrate covers the main linkage sites S2, S1 and S′1 with cysteine-proteases similar to papain (Turk, D. et al, Revised definition of substrate binding sites of papain-like cysteine proteases, J. Biol. Chem.; 1998, 379, 137-147).
The intensities of fluorescence signals were monitored by a thermostatic spectrofluorimetry Hitachi F-2000. Wavelength was calibrated at 380 nm for excitation and 440 nm for emission. The activation of the enzyme was made by incubation for five minutes at 37° C. in a buffer solution of 50 mM sodium phosphate (pH 6.4) containing NaCl 200 mM, EDTA 1 mM and DTT 2 mM. Measurements were taken in the same activation buffer of cathepsin B and kynetic standards were set up by taking the initial hydrolysis rate under various concentrations of the substrate in the presence or absence of different concentrations of organometal compounds. The results were analysed by non-linear regression by using the software GraFit 3.01 (Erithacus Software Ltd.).
The Kynetic model of Scheme 1 describes the effect of heparin over the hydrolysis of Z-Phe-Arg-MCA by cathepsin B:
In which S represents the substrate Z-Phe-Arg-MCA; I represents the cyclometal compound; E represents cathepsin B; KS represents the dissociation constant of the substrate; KI represents the apparent dissociation constant of the organometal; α is a disturbance standard of KS; and β is a disturbance standard of Vmax (kcat), with the standards being in accordance to the equation: […]
Data were treated according to Equation 1, by using non-linear regression and the values for the constants were calculated. […] The hydrolysis rate of the second order substrates was the same, kcat/Ks=4.5 10^5 M^−1s^−1, in the presence or absence of [Pd (C^2,N-(R+dmpa)(dppf)]N3.

Compound: C[C@H]1c2cccc[c]2[Pd-2]([Cl])([P+](c2ccccc2)(c2ccccc2)[c-]2cccc2)[N+]1(C)C.C[C@H]1c2cccc[c]2[Pd-2]([Cl])([P+](c2ccccc2)(c2ccccc2)[c-]2cccc2)[N+]1(C)C.[Fe+2] (stereo partly drawn) [4a, [Pd2(C^2,N-S-dmpa)2(μ-dppf)Cl2]]
Signs and symptoms ([1]; 500 mg/kg): Lack of acute toxicity signs

Compound: C[C@@H]1c2cccc[c]2[Pd-2]([Cl])([P+](c2ccccc2)(c2ccccc2)[c-]2cccc2)[N+]1(C)C.C[C@@H]1c2cccc[c]2[Pd-2]([Cl])([P+](c2ccccc2)(c2ccccc2)[c-]2cccc2)[N+]1(C)C.[Fe+2] (stereo partly drawn) [4b, [Pd2(C^2,N-R+ dmpa)2(μ-dppf)Cl2]]
Signs and symptoms ([1]; 10 mg/kg, listed as R(^+)dmpa Cl^− dppf (1:1), 10 mg/kg): Signs of conjunctivitis

Compound: C[C@H]1c2cccc[c]2[Pd-2]([Cl])([P+](c2ccccc2)(c2ccccc2)[c-]2cccc2)[N+]1(C)C.[Fe+2].c1ccc(P(c2ccccc2)[c-]2cccc2)cc1 (stereo partly drawn) [[Pd(C^2,N-(S-dmpa)(dppf)Cl]]
life extension of animals holding the ascitic tumor of Ehrlich [2]: increased the life extension | morphological aspect of treated HL60 cells [3]: aspects of an apoptosis cell

Compound: NCCCC[C@H](N[C@@H](CCc1ccccc1)C(=O)O)C(=O)N1CCC[C@H]1C(=O)O [lisinopryl]
inhibition of murine plasma activity for ACE [4]: 100%

inhibition of Cathepsin B [5]: 81% | product formation constant reduced to [5]: 36 | reduction of kcat in the presence of the compound [5]: 5.6 times | α (disturbance standard of KS) [5]: 0.19±0.02 | β (disturbance standard of Vmax, kcat) [5]: 0.18±0.02 | β/α [5]: 1.1±0.1 | increase of the affinity between Cathepsin B and the substrate Z-Phe-Arg-MCA ([5]; in the presence of the compound): 5.3 time | Ki ([5]; read-out: dissociation constant KH, compound linked to free Cathepsin B (E)): 12 ± 1 µM | Ki ([5]; read-out: dissociation constant αKH, compound linked to the enzyme-substrate (ES) complex): 2.4 ± 0.3 µM | Ks value in the presence of the organometal compound ([5]; reduced from 110±15 without compound): 21 ± 2 µM
Compound: [Pd(C^2,N-(R+dmpa)(dppf)]N3 [2a]
